Reference: patent US20040204493A1, “Carbonic anhydrase inhibitors as drugs to eradicate Helicobacter pylori in the mammalian, including human, stomach” (priority 2003, published 2004)
Like-named read-outs stand apart in the source and are kept apart here.

Experiments:
H. pylori [1] = assay: Survival of wildtype H. pylori in acid, in vitro; type: cell-based, Helicobacter pylori
Text: (§1) H. pylori bacteria which could not produce α-carbonic anhydrase gene (deletion mutants) were unable to survive in acid and were incapable of raising their periplasmic pH even with wildtype urease activity levels. […] This is illustrated in FIG. 1 of the appended drawings.
Therefore, it is now understood in accordance with the present invention that it is the combination of urease activation, expression of UreI and the periplasmic carbonic anhydrase that allows gastric colonization by H. pylori. […] Thus, targeting the acid biology of this pathogen provides specific H. pylori therapy. It is recognized in accordance with the present invention that within these three targets, a safe drug is only available for carbonic anhydrase.

[2] = system: basal acid secretion and stimulated acid secretion; details: humans, cited from earlier work
H. pylori [3] = assay: Periplasmic pH buffering of H. pylori in acid with urea, fluorescent pH sensitive dye BCECF (FIG. 1); type: cell-based, Helicobacter pylori
Protocol: as §1
Specifically, H. pylori was incubated in acid along with a fluorescent pH sensitive dye, BCECF, (bis-carboxy ethylcarboxy fluorescein) and then urea was added at 5 mM which is substantially the gastric juice concentration. In part A of the figure the increase in periplasmic pH is shown by the increased fluorescence of the dye indicating viable H. pylori bacteria.

[4] = cited from earlier work
urease = target: T1, urease (Helicobacter pylori, UniProt P69996); assay: Urease activity of H. pylori under in vitro treatment; type: cell-based; details: wildtype H. pylori
T1 construct: endogenous in cells
T1 sequence (P69996 whole entry): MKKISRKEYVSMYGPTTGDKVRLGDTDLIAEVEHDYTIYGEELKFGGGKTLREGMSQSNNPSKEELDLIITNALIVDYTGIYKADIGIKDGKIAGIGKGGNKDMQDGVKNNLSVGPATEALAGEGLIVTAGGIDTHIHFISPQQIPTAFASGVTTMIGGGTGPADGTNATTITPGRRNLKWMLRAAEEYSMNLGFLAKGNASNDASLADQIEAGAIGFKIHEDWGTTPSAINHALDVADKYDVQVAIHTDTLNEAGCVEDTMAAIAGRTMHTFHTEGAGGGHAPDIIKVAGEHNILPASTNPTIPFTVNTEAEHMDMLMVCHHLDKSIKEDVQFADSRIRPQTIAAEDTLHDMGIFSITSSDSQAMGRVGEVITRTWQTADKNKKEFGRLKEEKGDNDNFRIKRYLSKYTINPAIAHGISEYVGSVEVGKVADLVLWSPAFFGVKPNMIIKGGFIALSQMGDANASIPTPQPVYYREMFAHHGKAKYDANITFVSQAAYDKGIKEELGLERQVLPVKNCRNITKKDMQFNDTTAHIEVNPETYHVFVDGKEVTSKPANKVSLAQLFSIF
T1 sequence (P14916 whole entry, further chain): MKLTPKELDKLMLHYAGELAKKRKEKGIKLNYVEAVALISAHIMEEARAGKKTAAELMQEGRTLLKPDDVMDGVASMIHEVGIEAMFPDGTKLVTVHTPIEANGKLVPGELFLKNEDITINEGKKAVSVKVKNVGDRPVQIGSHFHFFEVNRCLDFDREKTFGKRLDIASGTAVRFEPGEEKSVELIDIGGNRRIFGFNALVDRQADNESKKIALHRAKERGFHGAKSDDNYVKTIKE
Text: as §1

SMILES: CC(=O)Nc1nnc(S(N)(=O)=O)s1 [acetazolamide]
- loss of survival of H. pylori in acid (H. pylori [1]; in acid, drug present): > 3 log order of magnitude
- bacterial ability to survive in acid (H. pylori [1]; wildtype H. pylori, in vitro treatment): inhibited the bacterial ability to survive in acid
- reduction of histamine stimulated acid secretion (MAO) ([2]; histamine stimulated): 83.2%
- reduction of basal acid output (BAO) [2]: 92.3%
- return of normal acid secretion following cessation of treatment [2]: 3-5
- time of treatment to maximal acid inhibition [2]: 3 to 5 days
- periplasmic buffering of pH (BCECF fluorescence) (H. pylori [3]; normal H. pylori in acid, urea 5 mM, drug added to the medium, FIG. 1 part C): no periplasmic buffering of pH detected
- bacterial ability to buffer its periplasm (H. pylori [3]; wildtype H. pylori in acid, in vitro treatment): inhibited
- relapse rate ([4]; 2 years after treatment, treated for 30 days (Valean et al.)): 6.2%
- relapse rate ([4]; 3 week treatment, ulcer healing (Erdei et al.)): 11%
- patients with intragastric pain abolished ([4]; 118 gastric ulcer patients, oral, after 3-5 days): 94%
- patients with complete ulcer healing (endoscopic evaluation) ([4]; after 15 days of treatment): 87%
- patients with complete ulcer healing (endoscopic evaluation) ([4]; after 30 days of treatment): 94%
- effect on urease activity (urease): without affecting urease activity
